Consider two compounds from patent US8106067B2, “Indolizine derivatives and the use thereof as antidiabetics” (Merck Patent GmbH, priority 2006, dated 2012).

One experiment has as its target T1, SGLT2 (Homo sapiens, UniProt P31639).
T1 construct: expressed in transfected cells
T1 sequence (P31639 1-672): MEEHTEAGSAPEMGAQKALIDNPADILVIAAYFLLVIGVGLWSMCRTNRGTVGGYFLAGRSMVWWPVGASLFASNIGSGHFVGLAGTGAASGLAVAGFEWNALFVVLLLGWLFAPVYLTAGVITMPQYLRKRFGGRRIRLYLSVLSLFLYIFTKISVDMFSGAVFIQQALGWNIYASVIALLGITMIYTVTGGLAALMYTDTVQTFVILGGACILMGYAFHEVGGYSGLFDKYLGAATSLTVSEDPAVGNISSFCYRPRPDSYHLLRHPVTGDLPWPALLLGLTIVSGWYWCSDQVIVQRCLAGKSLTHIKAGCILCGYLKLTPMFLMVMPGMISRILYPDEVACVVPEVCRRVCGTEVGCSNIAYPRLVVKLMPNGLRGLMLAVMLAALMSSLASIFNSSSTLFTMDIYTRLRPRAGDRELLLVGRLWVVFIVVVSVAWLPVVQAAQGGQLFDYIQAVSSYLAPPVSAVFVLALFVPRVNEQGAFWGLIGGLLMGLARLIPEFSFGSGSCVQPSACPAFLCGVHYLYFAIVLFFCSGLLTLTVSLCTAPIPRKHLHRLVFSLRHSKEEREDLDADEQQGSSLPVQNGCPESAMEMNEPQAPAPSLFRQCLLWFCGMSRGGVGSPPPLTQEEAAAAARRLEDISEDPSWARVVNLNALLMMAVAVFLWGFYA
Put plainly: 14C-AMG uptake in BHK cells transfected with SGLT2 (96-well cell-based assay). As to conditions: 2 mM AMG, 37° C., 90 min. An excerpt: (§1) The compounds can be tested for their SGLT inhibition properties by means of BHK cells expressing SGLT1 and SGLT2. The production of the cells and the testing can be carried out as described below.
To construct the SGLT2 expression vector (KL224), the SLC5A2 gene (homologous to NM_003041) was amplified from a cDNA library using standard PCR technology and cloned over NheI/XhoI sites into PCI-neo expression vector (Promega) containing neomycin as a selection marker. In this vector, transcription uses the enhancer/promoter of human cytomegalovirus and the SV40 polyadenylation signal.
The final vector KL224 together with an additional vector containing a dihydrofolate reductase gene as a selection marker was introduced into cells. […] After growth for 2-3 weeks, the cells were cloned (0.5 cells/well) and the clones were investigated for SGLT expression in radioactivity uptake tests. […]
(§2) BHK cells (transfected with SGLT1 or SGLT2) were seeded into 96-well microtitre plates (Cultureplates, Perkin Elmer). […] The radioactivity was counted in a Topcount microplate scintillation counter (Perkin Elmer). The non-specific uptake was determined in sodium-free assay buffer (266 mM sucrose, 2 mM KCl, 1 mM CaCl2, 1 mM MgCl2, 10 mM HEPES, 5 mM Tris, adjusted to pH 7.4 using 1 M KOH).

A further experiment addresses T2, SGLT1 (Homo sapiens, UniProt P13866).
T2 construct: expressed in transfected cells
T2 sequence (P13866 1-664): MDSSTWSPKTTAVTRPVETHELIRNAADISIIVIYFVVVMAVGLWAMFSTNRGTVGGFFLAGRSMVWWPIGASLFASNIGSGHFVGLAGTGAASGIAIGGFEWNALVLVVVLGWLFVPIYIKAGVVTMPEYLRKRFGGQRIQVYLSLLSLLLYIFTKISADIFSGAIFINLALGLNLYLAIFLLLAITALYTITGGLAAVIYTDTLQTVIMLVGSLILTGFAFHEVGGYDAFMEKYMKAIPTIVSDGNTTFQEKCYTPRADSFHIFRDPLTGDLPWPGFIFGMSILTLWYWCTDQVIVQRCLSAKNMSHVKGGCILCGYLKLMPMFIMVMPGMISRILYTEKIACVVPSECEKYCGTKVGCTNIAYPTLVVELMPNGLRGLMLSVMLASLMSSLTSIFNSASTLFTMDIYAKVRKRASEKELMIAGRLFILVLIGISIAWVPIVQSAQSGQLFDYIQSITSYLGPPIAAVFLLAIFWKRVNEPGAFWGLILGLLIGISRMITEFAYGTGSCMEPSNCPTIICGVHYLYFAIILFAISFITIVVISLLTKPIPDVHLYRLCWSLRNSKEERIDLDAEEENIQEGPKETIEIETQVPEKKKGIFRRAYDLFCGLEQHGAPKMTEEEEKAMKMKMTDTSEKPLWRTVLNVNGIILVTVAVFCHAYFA
Put plainly: 14C-AMG uptake in BHK cells transfected with SGLT1 (96-well cell-based assay). As to conditions: 50 μM AMG, 37° C., 90 min.
Excerpt: as §1
To construct the SGLT1 expression vector (KL225), the SLC5A1 gene (homologous to NM-000343) was amplified from a cDNA library using standard PCR technology and cloned over NheI/XhoI sites into the pcDNA3.1 expression vector (Invitrogen) containing neomycin as a selection marker. In this vector, transcription uses the enhancer/promoter of human cytomegalovirus.
The final vector KL225 together with an additional vector containing a dihydrofolate reductase gene as a selection marker was introduced into cells. […] After growth for 2-3 weeks, the cells were cloned (0.5 cells/well) and the clones were investigated for SGLT expression in radioactivity uptake tests. […]
as §2

For `COc1cccc(OCC(N)=O)c1-c1c(C#N)c2ccccn2c1Nc1c(C)cccc1C` [Compound A1, 2-{2-[1-cyano-3-(2,6-dimethylphenylamino)indolizin-2-yl]-3-methoxyphenoxy}acetamide], the IC50 was 10 to 1000 nM at SGLT2 and 1 to 10 µM against SGLT1.

Take `Cc1cccc(C)c1Nc1c(-c2ccccc2OCC(N)=O)c(C#N)c2ccccn12` [Compound A2, 2-{2-[1-Cyano-3-(2,6-dimethylphenylamino)indolizin-2-yl]phenoxy}acetamide]: the IC50 at SGLT2 lay within 10 to 1000 nM; at SGLT1, 1 to 10 µM.

The term IC50 denotes the concentration that gives 50% inhibition. A high value points to weaker potency in that assay.
